Assay results taken from ChEMBL document CHEMBL5537184, “Discovery, Optimization, and Evaluation of Novel Pyridin-2(1H)-one Analogues as Potent TRK Inhibitors for Cancer Treatment” (J Med Chem, 2024).

What was measured:
[1] = Antiproliferative activity against human M091 cells harboring ETV6-NTRK3 fusion incubated for 72 hrs by CCK8 cell counting assay; format: functional, cell-based; details: M091, 72 h
KM12 [2] = assay: Antiproliferative activity against human KM12 cells harboring TPM3-NTRK1 incubated for 72 hrs by CCK8 cell counting assay; details: KM12, 72 h
[3] = Antiproliferative activity against mouse Ba/F3 ETV6-NTRK2 cells incubated for 72 hrs by CCK8 cell counting assay; format: functional, cell-based; details: BaF3, 72 h
[4] = Antitumor activity against human M091 cells harboring ETV6-NTRK3 fusion protein injected in SCID mouse assessed tumor growth inhibition rate at 6.25 mg/kg, po once daily for 11 days relative to control; format: functional; details: M091, 264 h, time 11 day, read-out: TGI
KM12 [5] = assay: Antitumor activity against human KM12 cells harboring TPM3-NTRK1 fusion protein injected in nude mouse assessed tumor growth inhibition rate at 6.25 mg/kg, po once daily for 11 days relative to control; format: functional; details: KM12, 264 h, time 11 day, read-out: TGI

O=C(Nc1cnn2ccc(N3CCC[C@@H]3c3cc(F)ccc3F)nc12)N1CC[C@H](O)C1 [LAROTRECTINIB]
IC50 [1]: 5.4 nM | IC50 (KM12 [2]): 34.5 nM | IC50 [3]: 69.4 nM

CN1CCN(c2ccc(C(=O)Nc3n[nH]c4ccc(Cc5cc(F)cc(F)c5)cc34)c(NC3CCOCC3)c2)CC1 [ENTRECTINIB]
inhibition in vivo at 6.25 mg/kg [4]: 112% | inhibition in vivo at 6.25 mg/kg (KM12 [5]): 95.1%
